Series [1] deals with LCC6-WT: human breast carcinoma. Nature of the series: cytotoxicity assay of second generation taxoids. Format: cell-based. The conditions noted are these: 72 h drug exposure; read-out: LCC6-WT IC50. On the procedure: A cytotoxicity assay of these new second generation taxoids was performed on human breast cancer cell lines, LCC6-WT and LCC-MDR, and selected taxoids were also assayed for their potency against MCF7 and MCF7-R (Skehan, P., et al., J. Nat. Cancer Inst. 1990, 82, 1107-1112).

Series [2] has as its system MCF7-R (mammary carcinoma cells 180-fold resistant to adriamycin). Nature of the series: tumor cell growth inhibition (SRB, 72 h drug exposure). Format: cell-based, human. The conditions noted are these: 72 h drug exposure. On the procedure: (§1) Lower numbers indicate higher potency. […] The data represent the mean values of at least three separate experiments. Lower numbers indicate greater activity.
(§2) Assessment of cell growth inhibition was determined according to the methods of Skehan et al., J. Nat. Cancer Inst. […] Briefly, cells were plated between 400 and 1200 cells/well in 96 well plates and incubated at 37° C. for 15-18 h prior to drug addition to allow attachment of cells. […] After a 72 h incubation, […] of ice-cold 50% TCA was added to each well and incubated for 1 h at 4° C. Plates were then washed 5 times with tap water to remove TCA, low-molecular-weight metabolites and serum proteins. Sulforhodamine B (SRB) (0.4%, […]) was added to each well. Following a 5 min incubation at room temperature, plates were rinsed 5 times with 0.1% acetic acid and air dried. […] Optical density was measured at 570 nm.

A further series relates to MCF7 (mammary carcinoma). The description is as above. It is filed as cell-based, human. As to conditions: for IC50: 72 h drug exposure. How it is done: as §1, §2
A further series concerns A121 (ovarian carcinoma). Described as above. Format: cell-based, human. How it is done: as §1, §2
Series [3] deals with A549 (non-small cell lung carcinoma). The series is described as above. Format: cell-based, human. On the procedure: as §1, §2
A further series concerns HT-29 (colon carcinoma). Described as above. It is filed as cell-based, human. How it is done:
as §1, §2

For series [4], the system named is docetaxel-resistant melanoma, B16/TXT. Nature of the series: intravenous administration to B16/TXT melanoma-bearing mice. Format: in vivo, B6D2F1 female mice. As to conditions: days 3, 5, 7. How it is done: (§3) The efficacy of the test compounds on solid tumors in vivo was determined experimentally according to the following general experimental protocol:
(§4) The mice subjected to the experiment were subcutaneously grafted bilaterally with 30 to 60 mg of a tumor fragment on day zero. Mice bearing tumors were mixed before being subjected to the various treatments and controls. In the case of treatment of advanced tumors, tumors were allowed to develop to the desired size, and mice having insufficiently developed tumors were eliminated. The selected mice were distributed at random to undergo the treatments and controls. Mice not bearing tumors may also be subjected to the same treatments as the tumor-bearing mice in order to be able to dissociate the toxic effect from the specific effect on the tumor. Chemotherapy generally began from 3 to 22 days after grafting, depending on the type of tumor, and the mice were observed every day. The different mice groups were weighed 3 or 4 times a week until the maximum weight loss was attained (nadir), and the groups were then weighed at least once a week until the end of the trial.
(§5) The tumors were measured 2 or 3 times a week until the tumor reached approximately 2 grams, or until the animal died, if this occurred before the tumor reached 2 grams. The mice were autopsied when sacrificed.
(§6) The antitumor activity was determined in accordance with different parameters recorded such as dose (mg/kg), mode of administration, time of administration, cytotoxicity, toxicity and log10 cell kill.
SB-T-1213, SB-T-121303, SB-T-121304 and SB-T-1250 were evaluated in B6D2F1 female mice bearing the docetaxel-resistant melanoma, B16/TXT. The general experimental protocol was as described above. The compounds evaluated were administered intravenously on an intermittent schedule on days 3, 5, and 7 post tumor implantation.

The next series has as its system B16 melanoma. Nature of the series: intravenous administration to mice bearing B16 melanoma. Further details: key to Responses (activity rating): A = active; HA = highly active. It is filed as in vivo, B6D2F1 female mice. How it is done:
as §3, §4, §5, §6
SB-T-1213, SB-T-121303, SB-T-121304 and SB-T-1250 were evaluated in B6D2F1 female mice bearing B16 melanoma. The general experimental protocol was as described above. The compounds evaluated were administered intravenously (iv) on an intermittent schedule on days 3, 5, and 7 post tumor implantation. With the exception of SB-T-1250, solutions of the compounds for administration were prepared in 5% ethanol, 5% polysorbate 80, and 90% glucose 5% water.

Values joined by “and” are separate entries in the source; they are usually repeats but may differ in a detail not shown here. Equal entries are not always repeated. Where two headings read alike, the source gives them in different places.

In the case of `C=CCCC(NC(=O)OC(C)(C)C)C(O)C(=O)OC1CC2(O)C(OC(=O)c3cccc(OC)c3)C3C4(OC(C)=O)COC4CC(O)C3(C)C(=O)C(OC(=O)CC)C(=C1C)C2(C)C` (stereo not shown) [Taxoid 7h, 3′-Dephenyl-3′-(3-butenyl)-2-debenzoyl-2-(3-methoxybenzoyl)-10-propanoyldocetaxel], the 50% inhibitory concentration (IC50) stood at 0.9 nM in series [1]; 7.7 nM in series [2] (Table 3); 2 nM in the series with MCF7 (mammary carcinoma) (Table 3, read-out: MCF7 IC50).
For the compound `CC(=O)O[C@@]12CO[C@@H]1C[C@H](O)[C@@]1(C)C(=O)[C@H](O)C3=C(C)[C@@H](OC(=O)[C@H](O)[C@H](CC(C)(C)C)NC(=O)OC(C)(C)C)C[C@@](O)([C@@H](OC(=O)c4ccccc4)[C@H]21)C3(C)C` [3′-dephenyl-3′-neopentyldocetaxel], the cytotoxicity in words result (with A121 (ovarian carcinoma) (A121 human ovarian); with MCF7 (mammary carcinoma) (MCF7 human breast); in series [3] (A549 human non-small cell lung); in the series with HT-29 (colon carcinoma) (HT-29 human colon)) was “virtually not cytotoxic” throughout.
Take `CC(=O)OC1C(=O)C2(C)C(O)CC3OCC3(OC(C)=O)C2C(OC(=O)c2ccccc2)C2(O)CC(OC(=O)C(O)C(NC(=O)OC(C)(C)C)C(F)(F)F)C(C)=C1C2(C)C` (stereo not shown) [Taxoid Ig, 3′-Dephenyl-3 ′-trifluoromethyl-10-acetyldocetaxel]: the IC50 is 17 nM in series [2] (Table 1); 0.37 nM in the series with A121 (ovarian carcinoma) (72 h drug exposure); 0.25 nM with MCF7 (mammary carcinoma) (Table 1, read-out: MCF7 (breast) IC50); 0.25 nM in series [3] (72 h drug exposure, read-out: A549 (NSCLC) IC50); 0.4 nM with HT-29 (colon carcinoma) (72 h drug exposure).
Turning to `CCC(=O)OC1C(=O)C2(C)C(O)CC3OCC3(OC(C)=O)C2C(OC(=O)c2cccc(Cl)c2)C2(O)CC(OC(=O)C(O)C(C=C(C)C)NC(=O)OC(C)(C)C)C(C)=C1C2(C)C` (stereo not shown) [Taxoid 7d, 3′-Dephenyl-3′-(2-methylprop-1-enyl)-2-debenzoyl-2-(3-chlorobenzoyl)-10-propanoyldocetaxel], the IC50 in series [1] stood at 0.8 nM.
On the same count and under the same terms, the same measure for `C/C=C/C(NC(=O)OC(C)(C)C)C(O)C(=O)OC1CC2(O)C(OC(=O)c3cccc(OC)c3)C3C4(OC(C)=O)COC4CC(O)C3(C)C(=O)C(OC(=O)CC)C(=C1C)C2(C)C` (stereo not shown) [Taxoid 7k, 3′-Dephenyl-3′-[(E)-prop-1-enyl]-2-debenzoyl-2-(3-methoxybenzoyl)-10-propanoyldocetaxel]: 1.2 nM.
As to `CCC(=O)OC1C(=O)C2(C)C(O)CC3OCC3(OC(C)=O)C2C(OC(=O)c2cccc(N=[N+]=[N-])c2)C2(O)CC(OC(=O)C(O)C(CC(C)C)NC(=O)OC(C)(C)C)C(C)=C1C2(C)C` (stereo not shown) [Taxoid 7n, 3′-Dephenyl-3′-(2-methylpropyl)-2-debenzoyl-2-(3-azidobenzoyl)-10-propanoyldocetaxel], the IC50 in series [1] stood at 1.1 nM; in series [2] (Table 3), 2.1 nM; in the series with MCF7 (mammary carcinoma) (Table 3, read-out: MCF7 IC50), 1 nM.
The corresponding values for `CCC(=O)OC1C(=O)C2(C)C(O)CC3OCC3(OC(C)=O)C2C(OC(=O)c2cccc(OC)c2)C2(O)CC(OC(=O)C(O)C(NC(=O)OC(C)(C)C)C(F)F)C(C)=C1C2(C)C` (stereo not shown) [Taxoid 7g, 3′-Dephenyl-3′-difluoromethyl-2-debenzoyl-2-(3-methoxybenzoyl)-10-propanoyldocetaxel] are 1.5 nM, 4.3 nM and 0.4 nM.
As for `CCC(=O)OC1C(=O)C2(C)C(O)CC3OCC3(OC(C)=O)C2C(OC(=O)c2cccc(F)c2)C2(O)CC(OC(=O)C(O)C(CC(C)C)NC(=O)OC(C)(C)C)C(C)=C1C2(C)C` (stereo not shown) [Taxoid 7a, 3′-Dephenyl-3′-(2-methylpropyl)-2-debenzoyl-2-(3-fluorobenzoyl)-10-propanoyldocetaxel], the IC50 in series [1] was 0.4 nM.
With `CC(=O)OC1C(=O)C2(C)C(O)CC3OCC3(OC(C)=O)C2C(OC(=O)c2cccc(C)c2)C2(O)CC(OC(=O)C(O)C(C=C(C)C)NC(=O)OC(C)(C)C)C(C)=C1C2(C)C` (stereo not shown) [Taxoid 7q, 3′-Dephenyl-3′-(2-methylprop-1-enyl)-2-debenzoyl-2-(3-methylbenzoyl)-10-acetyldocetaxel], the IC50 amounted to 1.5 nM in series [1]; 5 nM in series [2] (Table 3); 0.8 nM in the series with MCF7 (mammary carcinoma) (Table 3, read-out: MCF7 IC50).
With `C=Cc1cccc(C(=O)OC2C3C4(OC(C)=O)COC4CC(O)C3(C)C(=O)C(OC(=O)CC)C3=C(C)C(OC(=O)C(O)C(C=C(C)C)NC(=O)OC(C)(C)C)CC2(O)C3(C)C)c1` (stereo not shown) [Taxoid 7p, 3′-Dephenyl-3′-(2-methylprop-1-enyl)-2-debenzoyl-2-(3-ethenylbenzoyl)-10-propanoyldocetaxel], the half-maximal inhibitory concentration (IC50) in series [1] was found to be 2.9 nM.
For `CCC(=O)O[C@H]1C(=O)[C@@]2(C)[C@H]([C@H](OC(=O)c3cccc(OC)c3)[C@]3(O)C[C@H](OC(=O)[C@H](O)[C@H](C=C(C)C)NC(=O)OC(C)(C)C)C(C)=C1C3(C)C)[C@]1(OC(C)=O)CO[C@@H]1C[C@@H]2O` [SB-T-121303], the T/C in series [4] (0.7 mg/kg/adm.) is 94%; in the series on B16 melanoma (1.9 mg/kg/adm., days 3, 5, 7), 12%. The “drug related deaths (DD)” value in series [4] (1.9 mg/kg/adm.) is “⅕”; in series [4] (3.2 mg/kg/adm.) it was 100%; with B16 melanoma (3.2 mg/kg/adm., days 3, 5, 7), 100%. Further, the highest nontoxic dose in series [4] was 1.2 mg/kg/adm; with B16 melanoma (days 3, 5, 7) it was 1.9 mg/kg/adm. Besides, the “Responses (activity rating)” value in the series on B16 melanoma (1.9 mg/kg/adm.) is “A”. Also, in the series on B16 melanoma (1.9 mg/kg/adm., days 3, 5, 7), the log10 cell kill is 1.7. Also, in the series on B16 melanoma (1.9 mg/kg/adm., days 3, 5, 7, 1.9 mg/kg), the “% body weight loss at nadir” value is 16.9% and 16.9 (13) %.
For the compound “3′-Dephenyl-3′-(2-methylprop-1-enyl)-2-debenzoyl-2-(3-methoxybenzoyl)-10-cyclopropyldocetaxel [Taxoid 7m]”, the concentration for half-maximal inhibition (IC50) in series [1] stood at 1 nM.
As for `C=CCC(NC(=O)OC(C)(C)C)C(O)C(=O)OC1CC2(O)C(OC(=O)c3cccc(OC)c3)C3C4(OC(C)=O)COC4CC(O)C3(C)C(=O)C(OC(=O)CC)C(=C1C)C2(C)C` (stereo not shown) [Taxoid 7i, 3′-Dephenyl-3′-(2-propenyl)-2-debenzoyl-2-(3-methoxybenzoyl)-10-propanoyldocetaxel], the IC50 in series [1] amounted to 1.2 nM; in series [2] (Table 3), 8.7 nM; in the series with MCF7 (mammary carcinoma) (Table 3, read-out: MCF7 IC50), 0.8 nM.
The matching figures for `CCC(=O)OC1C(=O)C2(C)C(O)CC3OCC3(OC(C)=O)C2C(OC(=O)c2cccc(OC)c2)C2(O)CC(OC(=O)C(O)C(NC(=O)OC(C)(C)C)[C@H]3CC3(C)C)C(C)=C1C2(C)C` (stereo partly drawn) [Taxoid 7j, 3′-Dephenyl-3′-[(S)-2,2-dimethylcyclopropyl]-2-debenzoyl-2-(3-methoxybenzoyl)-10-propanoyldocetaxel]: 0.48 nM, 1.5 nM and 0.6 nM.
As to `CCC(=O)OC1C(=O)C2(C)C(O)CC3OCC3(OC(C)=O)C2C(OC(=O)c2cccc(F)c2)C2(O)CC(OC(=O)C(O)C(C=C(C)C)NC(=O)OC(C)(C)C)C(C)=C1C2(C)C` (stereo not shown) [Taxoid 7b, 3′-Dephenyl-3′-(2-methylprop-1-enyl)-2-debenzoyl-2-(3-fluorobenzoyl)-10-propanoyldocetaxel], in series [1], the IC50 turned out to be 0.5 nM.
As to `COc1cccc(C(=O)OC2C3C4(OC(C)=O)COC4CC(O)C3(C)C(=O)C(OC(C)=O)C3=C(C)C(OC(=O)C(O)C(C=C(C)C)NC(=O)OC(C)(C)C)CC2(O)C3(C)C)c1` (stereo not shown) [Taxoid 7l, 3′-Dephenyl-3′-(2-methylprop-1-enyl)-2-debenzoyl-2-(3-methoxybenzoyl)-10-acetyldocetaxel], the 50% inhibitory concentration (IC50) in series [1] turned out to be 0.6 nM; in series [2] (Table 3), 2.3 nM; in the series on MCF7 (mammary carcinoma) (Table 3, read-out: MCF7 IC50), 0.8 nM.

Source of the values: patent US6500858B2, “Taxoid anti-tumor agents and pharmaceutical compositions thereof” (The Research Foundation of the state University of New York, priority 1994, dated 2002).
